According to the NIST ThermoML archive (doi:10.1021/acs.jced.6b00026):

Details: Liquid, Buoyancy - hydrostatic balance with magnetic suspension - one sinker

CCCCCCCCCCC [undecane]
Details | mass density [kg/m3]
313.17 K, 19009 kPa | 741.21
313.18 K, 9997 kPa | 734.69
313.19 K, 12016 kPa | 736.18
313.19 K, 18013 kPa | 740.5
313.22 K, 14009 kPa | 737.62
313.23 K, 16006 kPa | 739.05
313.24 K, 8029 kPa | 733.14
323.18 K, 19002 kPa | 734.54
323.19 K, 16026 kPa | 732.35
323.19 K, 17995 kPa | 733.8
323.22 K, 10009 kPa | 727.67
323.23 K, 12003 kPa | 729.24
323.23 K, 14022 kPa | 730.8
323.24 K, 7997 kPa | 726.03
333.12 K, 16003 kPa | 725.32
333.12 K, 17990 kPa | 726.87
333.13 K, 12007 kPa | 722.07
333.14 K, 8001 kPa | 718.68
333.14 K, 19027 kPa | 727.66
333.15 K, 14012 kPa | 723.7
333.16 K, 10001 kPa | 720.38
343.25 K, 13005 kPa | 716
343.25 K, 16996 kPa | 719.36
343.26 K, 11021 kPa | 714.27
343.26 K, 14019 kPa | 716.86
343.27 K, 15997 kPa | 718.51
343.27 K, 18006 kPa | 720.27
343.28 K, 11999 kPa | 715.12
343.28 K, 19019 kPa | 720.98
343.29 K, 7989 kPa | 711.51
343.29 K, 9998 kPa | 713.33
343.3 K, 14998 kPa | 717.66
353.16 K, 12003 kPa | 708.19
353.31 K, 11002 kPa | 707.25
353.31 K, 17012 kPa | 712.63
353.32 K, 13007 kPa | 709.08
353.32 K, 14999 kPa | 710.86
353.32 K, 19024 kPa | 714.35
353.33 K, 7993 kPa | 704.36
353.33 K, 14003 kPa | 709.98
353.33 K, 18010 kPa | 713.48
353.34 K, 16001 kPa | 711.73
353.35 K, 9996 kPa | 706.27
